Reference: patent publication US20200087258A1, “INHIBITOR OF CITRATE TRANSPORTER AND THEIR USE IN THERAPY” (Eternygen GmbH, priority 2017, published 2020)

Key:
[1] = target: T1, INDY (Homo sapiens, UniProt Q86YT5); experiment: 14C-citrate uptake in HepG2 cells endogenously expressing INDY (NaCT); assay type: cell-based; conditions: endogenous INDY
Method: (§1) The compound was obtained by screening of a library containing more than 50,000 lead-like compounds and fragments. The library was tested using a functional citrate uptake assay with HEK293 cells overexpressing recombinant human INDY. The following hit confirmation was conducted in the same assay system. To confirm the activity of selected compounds on the target INDY another cell assay was conducted. In this assay system citrate uptake was measured using HepG2 cells which endogenously express INDY. Furthermore selectivity of selected compounds was tested for two other transporters in different assay systems. The first transporter was the glutamate transporter GLT-1 tested in a glutamate uptake assays using HEK293 cells overexpressing recombinant human GLT-1. The second transporter was the glucose transporter GLUT1 tested in a glucose uptake assay using Huh-7 cells which endogenously express GLUT1. Compounds were considered to be selective with an at least 5-fold higher activity for INDY than for the other two transporters.
(§2) Cells were maintained in cell medium using cell culture grade flasks (CellSTACK Corning, 500 cm2 dishes or T175 depending on cell number). The selection antibiotic and G418 (800 μg/ml) was added during cultivation but not for seeding into assay plates. For splitting, cells were washed with PBS (w/o Ca2+, Mg2+, phenol red) and detached with Trypsin/EDTA. Throughout cultivation cells were kept sub-confluent. Detached cells (50,000 cells/well) were seeded in 96-well plates (white, clear bottom from Corning #655098) and incubated over night before usage in the assay. The following media were used. For HEK293 cells expressing INDY MEM (PAA)+10% FCS+1×P/S+2 mM L-Gln; for HEK293 cells expressing GLT-1 DMEM (Gibco)+10% FCS+400 µg/ml G418; for Huh7 cells DMEM (Gibco)+10% FCS+2 mM L-Gin (+1×P/S); for HepG2 cells MEM (PAA, Cat # E15-024)+10% FCS+2 mM L-Gin+1×NEAA+1 mM Na-Pyruvat
(§3) The following assay buffers for the particular uptake reaction were used. Citrate uptake buffer: 120 mM NaCl, 5.4 mM KCl, 0.8 mM MgSO4, 5 mM glucose, 1.8 mM CaCl2, 25 mM Hepes, 25 mM MES, pH 6.5. Glutamate uptake buffer: HBSS, 1 mM CaCl2, 1 mM MgCl2, 20 mM Hepes pH 7.4. Glucose uptake buffer: 25 mM Hepes+25 mM MES pH 7.4, 120 mM NaCl, 5.4 mM KCl, 1.8 mM CaCl2, 0.8 mM MgSO4.
INDY mediated citrate uptake was also determined in HepG2 cells. To determine the uptake of ^14C labelled citrate into cells, HepG2 cells endogenously expressing human NaCT were used. (Gopal et al. 2007 Am J Physiol Gastrointest Liver Physiol 292).
HepG2 cells were seeded into white clear-bottom 96-well plates (50,000/well) coated with collagen and incubated at 37° C. for 16-24 hours. After that plates were washed once with assay buffer using automated washing/LS 405 Selectors, BioTek ending with a buffer volume of 40 μl. Then 5 μl of compound solution in assay buffer was added and incubated for 5 min at 37° C. in cell incubator, HERA cell Heraeus. Afterwards 10 μl of substrate 14C-citrate (10 nM) were added and incubated for another 90 min at 37° C. in cell incubator, HERAcell. Then plates were washed 3× with 200 μl buffer and […] cell lysis induced by adding 50 μl ice-cold NaOH (100 mM). Plates were incubated for 25 min at RT on a plate shaker and afterwards 200 μl scintillation fluid was added and incubated for 15 min on a plate shaker at RT and for another 15 min without shaking at RT. Plates were measured using a TopCount system. As a positive control 5 mM citrate was applied. It is possible to use this assay also in analogy in a 384-well plate format.

[2] = target: T1, INDY; experiment: 14C-citrate uptake in HEK293 cells overexpressing recombinant human INDY (NaCT); assay type: cell-based; set-up: expressed in transfected cells; host or cells: HEK293
Method: as §1, §2, §3
INDY mediated citrate uptake was determined in HEK293 cells. To determine the uptake of ^14C labelled citrate into cells, HEK293 cells over-expressing human NaCT were used. Cloning of human NaCT was done in analogy as described in Birkenfeld et al. (Birkenfeld et al., 2011, Cell Metabolism 14, 184-195, 2011).
Human NaCT HEK293 cells were seeded into white clear-bottom 96-well plates (50,000/well) in the presence of 4 μg/ml Poly-D-Lysine and incubated at 37° C. for 16-24 hours. On the days of the assay the plates were washed once with assay buffer using automated washing/LS 405 Selectors, BioTek ending with a buffer volume of 40 μl. Then 5 μl of compound solution in assay buffer was added and incubated for 5-30 min at 37° C. in cell incubator, HERA cell Heraeus. Afterwards 10 μl of substrate 14C-citrate ([…]/[…] per well) were added and incubated for another 20-90 min at 37° C. in cell incubator, HERAcell. Then plates were washed twice with 200 μl ice-cold assay buffer and residual volume was discarded. For cell lysis 50 μl ice-cold NaOH (100 mM) was added and incubated for 15 minutes at RT on a plate shaker. Finally, 200 μl scintillation fluid (scintillator OptiPhase Supermix, Perkin Elmer) was added. After 15 min incubation at RT without shaking, plates were measured using a TopCount reader system (Perkin Elmer). As a positive control 10 mM citrate was applied. It is possible to use this assay also in analogy in a 384-well plate format.

T1 sequence (Q86YT5 whole entry, the tested form may be a part): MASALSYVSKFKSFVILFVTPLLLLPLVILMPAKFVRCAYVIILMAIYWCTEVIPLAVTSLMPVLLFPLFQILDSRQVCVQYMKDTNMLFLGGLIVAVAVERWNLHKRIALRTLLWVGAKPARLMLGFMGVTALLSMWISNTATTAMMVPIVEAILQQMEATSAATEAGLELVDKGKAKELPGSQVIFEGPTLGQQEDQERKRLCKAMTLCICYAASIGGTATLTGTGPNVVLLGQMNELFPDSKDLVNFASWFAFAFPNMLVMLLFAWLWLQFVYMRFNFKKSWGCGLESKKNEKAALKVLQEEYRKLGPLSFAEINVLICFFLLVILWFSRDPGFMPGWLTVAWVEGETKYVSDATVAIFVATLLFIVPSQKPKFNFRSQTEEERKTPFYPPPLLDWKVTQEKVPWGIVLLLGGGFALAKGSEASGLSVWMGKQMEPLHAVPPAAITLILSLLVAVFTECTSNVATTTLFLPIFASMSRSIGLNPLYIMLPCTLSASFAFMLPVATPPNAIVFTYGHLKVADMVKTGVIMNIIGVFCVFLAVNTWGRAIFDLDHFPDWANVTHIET

| IC50 [1] [µM] | IC50 [2] [µM] | Compound |
| --- | --- | --- |
|  | > 20 | O=C(NCc1ccc(CO)cc1)C1CCN(S(=O)(=O)c2ccc(C(F)(F)F)cc2)CC1 [Example 104, N-([4-(hydroxymethyl)phenyl]methyl)-1-[4-(trifluoromethyl)benzenesulfonyl]piperidine-4-carboxamide] |
|  | > 20 | O=C(NCc1ccccc1F)C1CCN(S(=O)(=O)c2ccc(CN3CCCC3)cc2)CC1 [Example 105, N-[(2-fluorophenyl)methyl]-1-{4-[(pyrrolidin-1-yl)methyl]benzenesulfonyl}piperidine-4-carboxamide] |
|  | 11.1 | CC(=O)c1cccc(S(=O)(=O)N2CCC(C(=O)NCc3ccccc3F)CC2)c1 [Example 106, 1-(3-acetylbenzenesulfonyl)-N-[(2-fluorophenyl)methyl]piperidine-4-carboxamide] |
|  | 13.2 | CC(O)c1cccc(S(=O)(=O)N2CCC(C(=O)NCc3ccccc3F)CC2)c1 (stereo not shown) [Example 107, N-[(2-fluorophenyl)methyl]-1-[3-(1-hydroxyethyl)benzenesulfonyl]piperidine-4-carboxamide] |
|  | 20.4 | C/C(=N\O)c1cccc(S(=O)(=O)N2CCC(C(=O)NCc3ccccc3F)CC2)c1 [Example 108, N-[(2-fluorophenyl)methyl]-1-{3-[(1E)-1-(hydroxyimino)ethyl]benzenesulfonyl}piperidine-4-carboxamide] |
|  | > 20 | CCCNC(C)c1cccc(S(=O)(=O)N2CCC(C(=O)NCc3ccccc3F)CC2)c1 (stereo not shown) [Example 109, N-[(2-fluorophenyl)methyl]-1-{3-[1-(propylamino)ethyl]benzenesulfonyl}piperidine-4-carboxamide] |
|  | > 20 | CNC(C)c1cccc(S(=O)(=O)N2CCC(C(=O)NCc3ccccc3F)CC2)c1 (stereo not shown) [Example 110, N-[(2-fluorophenyl)methyl]-1-{3-[1-(methylamino)ethyl]benzenesulfonyl}piperidine-4-carboxamide] |
|  | > 20 | CCN(CC)C(C)c1cccc(S(=O)(=O)N2CCC(C(=O)NCc3ccccc3F)CC2)c1 (stereo not shown) [Example 113, 1-{3-[1-(diethylamino)ethyl]benzenesulfonyl}-N-[(2-fluorophenyl)methyl]piperidine-4-carboxamide] |
|  | > 20 | O=C(O)c1cccc(CNC(=O)C2CCN(S(=O)(=O)c3cc(Cl)cc(Cl)c3)CC2)c1 [Example 119, 3-({[1-(3,5-dichlorobenzenesulfonyl)piperidin-4-yl]formamido}methyl)benzoic acid] |
|  | 18.8 | Cc1cc(S(=O)(=O)N2CCC(C(=O)NCc3ccccn3)CC2)ccc1Cl [Example 121, 1-(4-chloro-3-methylbenzenesulfonyl)-N-[(pyridin-2-yl)methyl]piperidine-4-carboxamide] |
|  | 18.8 | Cc1ccc(S(=O)(=O)N2CCC(C(=O)NCc3ccccn3)CC2)cc1Cl [Example 122, 1-(3-chloro-4-methylbenzenesulfonyl)-N-[(pyridin-2-yl)methyl]piperidine-4-carboxamide] |
|  | > 20 | CN(Cc1ccccn1)C(=O)C1CCN(S(=O)(=O)c2cc(Cl)cc(Cl)c2)CC1 [Example 128, 1-(3,5-dichlorobenzenesulfonyl)-N-methyl-N-[(pyridin-2-yl)methyl]piperidine-4-carboxamide] |

The next lines start with the compound.

| Compound | IC50 [1] [µM] | IC50 [2] [µM] |
| --- | --- | --- |
| O=C(NCc1ccccn1)C1CCN(S(=O)(=O)/C=C/c2ccccc2)CC1 [Example 3, 1-[(E)-2-phenylethenesulfonyl]-N-(pyridin-2-ylmethyl)piperidine-4-carboxamide] | 11.3 |  |
| COc1ccc(S(=O)(=O)N2CCC(C(=O)NCc3ccccc3F)CC2)cc1 [Example 4, N-[(2-fluorophenyl)methyl]-1-(4-methoxybenzenesulfonyl) piperidine-4-carboxamide] | 5.7 |  |
| O=C(NCc1ccccc1F)N1CCN(S(=O)(=O)/C=C/c2ccccc2)CC1 [Example 7, N-[(2-fluorophenyl)methyl]-4-[(E)-2-phenylethenesulfonyl]piperazine-1-carboxamide] | > 50 |  |
| CN(Cc1ccccc1F)C(=O)C1CCN(S(=O)(=O)/C=C/c2ccccc2)CC1 [Example 8, N-[(2-fluorophenyl)methyl]-N-methyl-1-[(E)-2-phenylethenesulfonyl]piperidine-4-carboxamide] | > 50 |  |
| O=C(NCc1ccccc1F)C1CCN(S(=O)(=O)C2=Cc3ccccc3OC2)CC1 [Example 9, 1-(2H-chromene-3-sulfonyl)-N-[(2-fluorophenyl)methyl]piperidine-4-carboxamide] | > 50 |  |
| COC(=O)c1ccc(S(=O)(=O)N2CCC(C(=O)NCc3ccccc3F)CC2)cc1 [Example 89, methyl 4-[(4-{[(2-fluorophenyl)methyl]carbamoyl}piperidin-1-yl)sulfonyl]benzoate] |  | > 20 |
| O=C(O)c1cccc(S(=O)(=O)N2CCC(C(=O)NCc3ccccc3F)CC2)c1 [Example 90, 3-[(4-{[(2-fluorophenyl)methyl]carbamoyl}piperidin-1-yl)sulfonyl]benzoic acid] |  | > 20 |
| O=C(O)c1ccc(S(=O)(=O)N2CCC(C(=O)NCc3ccccc3F)CC2)cc1 [Example 91, 4-[(4-{[(2-fluorophenyl)methyl]carbamoyl}piperidin-1-yl)sulfonyl]benzoic acid] |  | > 20 |
| O=C(NCc1ccccn1)C1CCN(S(=O)(=O)c2cccc(OC(F)(F)F)c2)CC1 [Example 93, N-[(pyridin-2-yl)methyl]-1-[3-(trifluoromethoxy)benzenesulfonyl]piperidine-4-carboxamide] |  | 16.4 |
| O=Cc1ccc(S(=O)(=O)N2CCC(C(=O)NCc3ccccc3F)CC2)cc1 [Example 94, N-[(2-fluorophenyl)methyl]-1-(4-formylbenzenesulfonyl)piperidine-4-carboxamide] |  | > 20 |
| NCc1ccccc1CNC(=O)C1CCN(S(=O)(=O)c2cc(Cl)cc(Cl)c2)CC1 [Example 98, N-([2-(aminomethyl)phenyl]methyl)-1-(3,5-dichlorobenzenesulfonyl)piperidine-4-carboxamide] |  | > 20 |
| O=C(NCc1ccccc1F)C1CCN(S(=O)(=O)c2ccc(CO)cc2)CC1 [Example 100, N-[(2-fluorophenyl)methyl]-1-[4-(hydroxymethyl)benzenesulfonyl]piperidine-4-carboxamide] |  | > 20 |
| CN(C)CCOc1ccc(S(=O)(=O)N2CCC(C(=O)NCc3ccccc3F)CC2)cc1 [Example 102, 1-(4-[2-(dimethylamino)ethoxy]benzenesulfonyl)-N-[(2-fluorophenyl)methyl]piperidine-4-carboxamide] |  | > 20 |
